Source: patent US8853183B2, “Prognosis and treatment of breast cancer” (Trustees of Darmouth College, priority 2005, dated 2014)

Tests used:
[1] = tested on: S14 mRNA; experiment: Real-time RT-PCR of S14 mRNA in T47D cells
[2] = tested on: S14 mRNA; details: Heemers, et al. (2000); cited from earlier work
[3] = tested on: FAS mRNA; experiment: Real-time RT-PCR of FAS mRNA in T47D cells
[4] = tested on: breast cancer cells; details: Pizer, et al. (1996); cited from earlier work
[5] = tested on: human ovarian tumor cell xenografts; details: nude mice; Pizer, et al. (1996); cited from earlier work
[6] = tested on: S14 protein; experiment: Western blot of S14 protein in T47D cells; details: single stimulus; R1881 10 nM 48 hours or adenovirus alone
[7] = tested on: human S14 gene promoter; experiment: Human S14 gene promoter fragment luciferase reporter; assay type: cell-based; details: proximal 4003 bp of human S14 promoter fused to luciferase
Protocol: (§1) Using a human S14 gene promoter fragment fused to a luciferase reporter, the mechanism underlying R1881-induced accumulation of S14 mRNA was determined. The human S14 construct contained the proximal 4003 bp of the S14 promoter (Campbell, et al. (2003) Endocrinol. 144:5242-5248). […] Nevertheless, R1881 induced promoter activity by 4-fold. Employing a 157 bp fragment of the human FAS gene promoter that is also devoid of progesterone response elements (Swinnen, et al. (1997) supra), the effect of R1881 on FAS gene expression was examined.
(§2) T47D or HEK 293 cells were plated at 50% confluence in 75 cm^2 flasks and the next morning were transfected with 8 μg plasmid DNA in 48 μL FUGENE (Roche, Indianapolis, Ind.) in 5% charcoal-stripped serum-containing media without antibiotics. To ensure uniform transfection efficiency, cells were trypsinized, mixed, and redistributed into 6-well plates 8 hours later. Forty-eight hours post-transfection, culture medium was removed, and extracts prepared in reporter lysis buffer (250 μL/well; PROMEGA, Madison, Wis.). Lysates (20 μL) were assessed for luciferase activity using an LMaxII384 luminometer (MOLECULAR DEVICES, Sunnyvale, Calif.), and normalized to protein concentrations (BCA Protein Assay; Pierce, Rockland, Ill.).

[8] = tested on: SREBP-1c mRNA; experiment: Real-time RT-PCR of SREBP-1c mRNA in T47D cells; details: 10 nM, within 48 hours, cyclophilin as control
[9] = tested on: human FAS gene promoter; experiment: Human FAS gene promoter fragment luciferase reporter; assay type: cell-based; details: 48 hours exposure
Protocol: as §1, §2

[10] = tested on: lipogenic prostate cancer cells; details: Kridel, et al. (2004); cited from earlier work
[11] = tested on: lipogenic prostate cancer cells xenografts; details: immunodeficient mice; Kridel, et al. (2004); cited from earlier work
[12] = time course using nM R5020, T47D cells
[13] = 10 nM, within 48 hours, T47D cells, cyclophilin as control

CCC(=O)[C@@]1(C)CC[C@H]2[C@@H]3CCC4=CC(=O)CCC4=C3CC[C@@]21C [R5020]
S14 mRNA induction, time course [1, 12]: comparable to that observed with R1881
lag time between application of the hormone and onset of accumulation of S14 mRNA ([1]; time course, T47D cells): > 10 h
S14 mRNA induction in T47D cells [2]: significantly induces
FAS mRNA induction, time course [3, 12]: comparable to that observed with R1881
lag time between application of the hormone and onset of accumulation of FAS mRNA ([3]; time course, T47D cells): > 10 h

C/C=C/C/C=C/CCC(=O)[C@H]1O[C@H]1C(N)=O [Cerulenin]
apoptosis of breast cancer cells [4]: cause apoptosis
growth of human ovarian tumor cell xenografts [5]: inhibit the growth

C[C@]1(O)CC[C@H]2[C@@H]3CCC4=CC(=O)CCC4=C3C=C[C@@]21C [R1881]
S14 protein (~16 kD band) on western blot [6]: faint band
S14 mRNA induction [1, 13]: significantly induced
S14 mRNA induction by R1881 in presence of control adenovirus (Ad-β-gal) ([1]; R1881 10 nM, RNA harvested 40 hours later, MOI 50): ~8 fold
S14 mRNA induction in T47D cells [2]: significantly induces
FAS mRNA induction [3, 13]: significantly induced
FAS mRNA induction by R1881 in presence of Ad-β-gal ([3]; T47D cells): ~2 fold
S14 promoter activity induction [7]: 4 fold
SREBP-1c mRNA induction [8]: significantly induced
FAS promoter induction ([9]; 157 bp fragment of human FAS gene promoter): 4 fold
FAS promoter response, construct with sterol response element deleted [9]: markedly reduced

CCCCCCCCCCC[C@@H](C[C@@H]1OC(=O)[C@H]1CCCCCC)OC(=O)[C@H](CC(C)C)NC=O [Orlistat]
apoptosis of lipogenic prostate cancer cells in culture [10]: causes apoptosis
apoptosis of lipogenic prostate cancer cells in xenografts [11]: causes apoptosis
